Source: US20150168386A1, “METHOD AND SYSTEM FOR IDENTIFYING LEAKY LUNG EPITHELIAL BARRIER” (priority 2013, published 2015)

Experiments:
[1] = urinary mannitol clearance after inhaled mannitol in human subjects; format: in vivo; conditions: 635 mg inhaled mannitol; urine over 24 hours, mass spectrometry; 6 subjects with asthma symptoms vs 2 healthy controls
From the text: Results are expressed as urinary mannitol clearance, or the concentration in the urine samples collected multiplied by the amount of urine produced. […] The horizontal bar indicates mean values.

[2] = tested on: 16HBE cells; assay: flux of mannitol across human bronchial epithelial monolayers; format: in vitro ADME; conditions: 16HBE cells confluent on semipermeable membrane; lower chamber after 1 hour, colorimetric assay; unstimulated or PolyI:C pretreated 18 hours
Protocol: The x-axis indicates the concentration of mannitol applied to the upper chamber of 16HBE cells grown to confluence on a semipermeable membrane. The y-axis indicates the concentration of mannitol detected in the lower chamber after 1 hour, determined using a colorimetric assay (where OD refers to optical density). 16HBE cells were either unstimulated (open bars) or pretreated with the viral mimetic PolyI:C (closed bars) for 18 hours prior to analysis of mannitol permeability. Note that in both unstimulated and PolyI:C-stimulated cells, the mannitol concentration detected in the lower chamber increased steadily with the concentration of mannitol applied to the top chamber (i.e. there was no plateau). This is indicative of movement across the monolayer via paracellular routes (as opposed to receptor mediated transport, for example).

[3] = set-up: species or system C57BL/6 mice; conditions: mouse, in vivo
From the text: In this experiment, 6-8 week old C57BL/6 mice were infected with a clinical isolate of RSV 9 (strain A2) intranasally (i.n.) on day 0 (d0), and then challenged with orally inhaled mannitol on days 2 and 4 as indicated by the arrows in the schematic (top of figure). Two hours after each mannitol inhalation, urine was collected from mice by scruffing, and analyzed for mannitol using a colorimetric assay. They are expressed as fold change in urine mannitol relative to uninfected control mice on d0, which was set at 1. Data are mean±standard error of the mean, of n=5-6 mice per group. * indicated p<0.05.

With `OC[C@@H](O)[C@@H](O)[C@H](O)[C@H](O)CO` [mannitol] the urinary mannitol clearance [1] was “Subjects with asthma symptoms had higher mannitol clearance on average”, the “flux of mannitol across the monolayer” value [2] was “non-saturable” and the “excretion of orally inhaled mannitol (fold change in urine mannitol relative to uninfected control mice on d0)” value [3] was “higher in mice infected with respiratory syncytial virus (RSV) infection”.
